This note sets out measurements from ChEMBL document CHEMBL4270587, “Difuran-substituted quinoxalines as a novel class of PI3Kα H1047R mutant inhibitors: Synthesis, biological evaluation and structure-activity relationship” (Eur J Med Chem, 2018).

Bounds are passed on as bounds.

The target of test [1] is PI3-kinase p110-alpha/p85-alpha (Homo sapiens, UniProt P42336, H1047R). Nature of the test: Inhibition of recombinant full length PI3K p85alpha/p110alpha H1047R mutant (unknown origin) expressed in baculovirus infected sf9 cells using PIP2 as substrate preincubated for 10 mins followed by ATP addition and measured after 45 mins by HTRF assay.
The next test relates to HCT-116. Nature of the test: cells. The following applies: Homo sapiens, HCT-116, 72 h.
Test [2] deals with PI3-kinase p110-alpha/p85-alpha (Homo sapiens, UniProt P42336). Nature of the test: Inhibition of recombinant full length PI3K p110alpha/p85alpha (unknown origin) expressed in baculovirus infected sf9 cells using PIP2 as substrate preincubated for 10 mins followed by ATP addition and measured after 45 mins by HTRF assay. In general terms: Time-resolved FRET reads energy transfer from a long-lived donor to a nearby acceptor.

In the next test the test system is MCF7. Nature of the test: cells. The following applies: Homo sapiens, MCF7, 72 h.
A short description of test [3]: Inhibition of mTORC1 (unknown origin). On the set-up: species or system Homo sapiens.

Sequence of PI3-kinase p110-alpha/p85-alpha (Homo sapiens, UniProt P42336, H1047R) (P42336 whole entry H1047R, looked up): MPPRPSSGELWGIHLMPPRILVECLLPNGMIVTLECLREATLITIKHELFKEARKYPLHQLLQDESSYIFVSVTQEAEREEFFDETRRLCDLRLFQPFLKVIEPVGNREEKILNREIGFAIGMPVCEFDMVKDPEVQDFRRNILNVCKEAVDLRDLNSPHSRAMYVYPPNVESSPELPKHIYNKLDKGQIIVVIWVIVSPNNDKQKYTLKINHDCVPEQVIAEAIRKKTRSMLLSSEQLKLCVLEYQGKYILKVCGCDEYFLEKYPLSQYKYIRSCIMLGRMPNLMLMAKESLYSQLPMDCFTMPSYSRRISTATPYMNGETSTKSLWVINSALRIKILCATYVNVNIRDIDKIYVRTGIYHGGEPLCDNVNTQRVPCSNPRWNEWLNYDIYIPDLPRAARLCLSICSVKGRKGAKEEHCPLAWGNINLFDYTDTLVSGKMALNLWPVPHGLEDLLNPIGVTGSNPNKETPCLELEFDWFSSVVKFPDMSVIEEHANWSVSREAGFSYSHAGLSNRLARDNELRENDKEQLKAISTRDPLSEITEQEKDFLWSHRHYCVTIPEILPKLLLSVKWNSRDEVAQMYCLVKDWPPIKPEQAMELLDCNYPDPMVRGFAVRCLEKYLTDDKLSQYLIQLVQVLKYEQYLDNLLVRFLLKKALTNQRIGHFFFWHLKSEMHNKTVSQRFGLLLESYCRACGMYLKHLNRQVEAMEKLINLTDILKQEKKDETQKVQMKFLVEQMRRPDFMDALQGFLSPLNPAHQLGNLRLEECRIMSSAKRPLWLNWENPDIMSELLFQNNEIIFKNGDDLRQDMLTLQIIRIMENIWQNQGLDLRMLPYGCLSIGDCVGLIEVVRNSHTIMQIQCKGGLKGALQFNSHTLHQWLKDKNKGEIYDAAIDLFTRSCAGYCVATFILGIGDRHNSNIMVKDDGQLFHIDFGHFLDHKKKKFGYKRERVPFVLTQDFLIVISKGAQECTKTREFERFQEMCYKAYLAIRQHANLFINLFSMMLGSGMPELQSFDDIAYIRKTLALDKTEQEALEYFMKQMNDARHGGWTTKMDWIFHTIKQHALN
Sequence of PI3-kinase p110-alpha/p85-alpha (Homo sapiens, UniProt P42336) (P27986 whole entry): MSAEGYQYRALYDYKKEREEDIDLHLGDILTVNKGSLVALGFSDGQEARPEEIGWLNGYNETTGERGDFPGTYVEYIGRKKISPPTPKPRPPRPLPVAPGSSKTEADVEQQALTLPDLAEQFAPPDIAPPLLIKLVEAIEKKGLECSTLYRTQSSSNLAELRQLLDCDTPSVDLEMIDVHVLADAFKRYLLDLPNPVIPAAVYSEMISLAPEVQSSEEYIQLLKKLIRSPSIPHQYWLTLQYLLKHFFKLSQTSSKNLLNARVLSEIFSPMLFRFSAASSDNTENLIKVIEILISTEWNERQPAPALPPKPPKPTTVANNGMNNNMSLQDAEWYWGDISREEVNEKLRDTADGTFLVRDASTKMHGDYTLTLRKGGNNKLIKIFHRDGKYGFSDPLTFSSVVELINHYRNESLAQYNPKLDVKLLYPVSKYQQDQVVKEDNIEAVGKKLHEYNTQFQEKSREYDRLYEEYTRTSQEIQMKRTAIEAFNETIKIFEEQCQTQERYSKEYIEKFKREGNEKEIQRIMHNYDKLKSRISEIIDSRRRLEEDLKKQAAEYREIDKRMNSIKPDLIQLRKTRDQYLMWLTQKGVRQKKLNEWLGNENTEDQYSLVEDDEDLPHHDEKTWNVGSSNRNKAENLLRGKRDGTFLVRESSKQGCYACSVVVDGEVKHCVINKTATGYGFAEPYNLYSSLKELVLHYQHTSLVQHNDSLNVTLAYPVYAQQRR
Sequence of PI3-kinase p110-alpha/p85-alpha (Homo sapiens, UniProt P42336) (P42336 whole entry): as the sequence (P42336 whole entry H1047R, looked up) above, with R1047H counted along it
Description for MCF7: Antiproliferative activity against human MCF7 cells after 72 hrs by CCK8 assay

A word on the EC50: it is the concentration at which the effect is half-maximal. The IC50 is the midpoint of a concentration-inhibition curve. Higher therefore signals weaker potency in that assay. As for `c1ccc(-c2ccc3nc(-c4ccco4)c(-c4ccco4)nc3c2)cc1`, the EC50 was 47.8 µM in test [1] and 12.4 µM in test [2]. Moreover, the half-inhibitory concentration (IC50) in the test with HCT-116 and with MCF7 was > 50 µM in each case.

Turning to `Brc1cc2nc(-c3ccco3)c(-c3ccco3)nc2cc1-c1cc2ccccc2o1`, the concentration for a half-maximal effect (EC50) in test [1] is > 100 µM. Besides, the IC50 in the test on HCT-116 and with MCF7 was > 50 µM each time.

In the case of `FC(F)(F)c1ccc2nc(-c3ccco3)c(-c3ccco3)nc2c1`, the EC50 in test [1] was > 100 µM. For the same compound, the IC50 with HCT-116 and in the test with MCF7 was > 50 µM each time.

`c1coc(-c2nc3ccc(-c4ccncc4)cc3nc2-c2ccco2)c1`: in test [1], the EC50 is > 100 µM. In addition, the IC50 in the test with HCT-116 and in the test on MCF7 was > 50 µM throughout.

Consider `Clc1cc(Cl)c2nc(-c3ccco3)c(-c3ccco3)nc2c1`, for which the EC50 in test [1] is 76 µM; in test [2], 54.6 µM. In addition, the IC50 with HCT-116 and in the test on MCF7 was > 50 µM in each case.

`Brc1cc2nc(-c3ccco3)c(-c3ccco3)nc2cc1-c1cc2ccccc2s1`: in test [1], the concentration for a half-maximal effect (EC50) was 1.2 µM. In addition, the IC50 is 38.5 µM in the test on HCT-116 and 40.9 µM in the test on MCF7.

With `Oc1ccccc1-c1ccc2nc(-c3ccco3)c(-c3ccco3)nc2c1`, the EC50 in test [1] is 43.5 µM. In addition, the IC50 with HCT-116 and in the test with MCF7 was > 50 µM each time.

For the compound `c1csc(-c2nc3ccccc3nc2-c2cccs2)c1`, the EC50 in test [1] is > 100 µM. For the same compound, the IC50 in the test with HCT-116 and in the test on MCF7 was > 50 µM throughout.

In the case of `COc1ccccc1-c1cc2nc(-c3ccco3)c(-c3ccco3)nc2cc1Br`, the 50% effective concentration (EC50) in test [1] was > 100 µM. Also, the IC50 with HCT-116 and in the test with MCF7 was > 50 µM each time.

Take `COc1ccccc1-c1ccc2nc(-c3ccco3)c(-c3ccco3)nc2c1`: the EC50 in test [1] worked out at 87.3 µM. Besides, the IC50 in the test with HCT-116 and in the test on MCF7 was > 50 µM throughout.

In the case of `Clc1ccc2nc(-c3ccco3)c(-c3ccco3)nc2c1Cl`, in test [1], the concentration giving a half-maximal response (EC50) was > 100 µM. Besides, the IC50 in the test on HCT-116 and with MCF7 was > 50 µM throughout.

With `Fc1ccc(-c2cc3nc(-c4ccco4)c(-c4ccco4)nc3cc2Br)c(F)c1`, the EC50 in test [1] amounted to 3.2 µM. Moreover, the IC50 in the test with HCT-116 amounted to 16.6 µM; in the test on MCF7, 27.9 µM.

Turning to `COc1ccc(-c2cc3nc(-c4ccco4)c(-c4ccco4)nc3cc2Br)cc1`, the EC50 in test [1] is > 100 µM. In addition, the IC50 with HCT-116 and in the test on MCF7 was > 50 µM throughout.

As to `FC(F)(F)c1ccccc1-c1cc2nc(-c3ccco3)c(-c3ccco3)nc2cc1Br`, the EC50 in test [1] is 0.169 µM; in test [2], 0.097 µM. In addition, the 50% inhibitory concentration (IC50) in the test with HCT-116 came to 13.5 µM; in the test on MCF7, 15.5 µM.

On to `Brc1ccc2nc(-c3ccco3)c(-c3ccco3)nc2c1`, for which the EC50 in test [1] worked out at 33.5 µM; in test [2] it was 27.6 µM. Further, the IC50 in the test on HCT-116 and with MCF7 was > 50 µM in each case.

As for `Fc1cccc(-c2cc3nc(-c4ccco4)c(-c4ccco4)nc3cc2Br)c1`, the EC50 in test [1] amounted to 2.9 µM. The 50% inhibitory concentration (IC50) stood at 43.1 µM in the test on HCT-116 and 19.6 µM in the test on MCF7.

Turning to `c1coc(-c2nc3ccc(-c4cc5ccccc5s4)cc3nc2-c2ccco2)c1`, the concentration for a half-maximal effect (EC50) in test [1] is > 100 µM. Moreover, the IC50 in the test with HCT-116 and with MCF7 was > 50 µM each time.

For the compound `Brc1cc2nc(-c3ccco3)c(-c3ccco3)nc2cc1Br`, the EC50 in test [1] worked out at 39.3 µM. The IC50 with HCT-116 and in the test with MCF7 was > 50 µM in each case.

Turning to `COc1cc(OC)cc(-c2cc3nc(-c4ccco4)c(-c4ccco4)nc3cc2Br)c1`, the EC50 in test [1] is > 100 µM. Also, the IC50 in the test with HCT-116 and in the test with MCF7 was > 50 µM each time.

`Clc1ccc2nc(-c3ccco3)c(-c3ccco3)nc2c1`: in test [1], the EC50 worked out at 18.1 µM. For the same compound, the IC50 in the test with HCT-116 and in the test with MCF7 was > 50 µM in each case.

Regarding `c1ccc2nc(N3CCOCC3)c(N3CCOCC3)nc2c1`, the EC50 in test [1] was > 100 µM. The IC50 with HCT-116 and with MCF7 was > 50 µM throughout.

Turning to `Clc1ccccc1-c1cc2nc(-c3ccco3)c(-c3ccco3)nc2cc1Br`, the EC50 in test [1] was > 100 µM. The IC50 with HCT-116 and with MCF7 was > 50 µM in each case.

For `Fc1ccccc1-c1ccc2nc(-c3ccco3)c(-c3ccco3)nc2c1`, in test [1], the EC50 turned out to be 12.7 µM. Also, the IC50 with HCT-116 is 39.7 µM; with MCF7, > 50 µM.

For `Brc1cc2nc(-c3ccco3)c(-c3ccco3)nc2cc1-c1ccncc1`, the EC50 in test [1] was determined as 10.8 µM. Besides, the results for the IC50 in the test on HCT-116 and in the test with MCF7 were 45.7 µM and > 50 µM, respectively.

In the case of `c1ccc(-c2nc3ccccc3nc2-c2ccccc2)cc1`, the EC50 in test [1] was > 100 µM. For the same compound, the IC50 in the test with HCT-116 and in the test with MCF7 was > 50 µM each time.

`Fc1ccc2nc(-c3ccco3)c(-c3ccco3)nc2c1`: the EC50 in test [1] was > 100 µM. The half-inhibitory concentration (IC50) in the test with HCT-116 and in the test with MCF7 was > 50 µM throughout.

As for `Brc1cc2nc(-c3ccco3)c(-c3ccco3)nc2cc1-c1cncnc1`, the EC50 in test [1] stood at 13.5 µM. For the same compound, the IC50 in the test on HCT-116 and in the test on MCF7 was > 50 µM in each case.

For `Fc1ccc(-c2cc3nc(-c4ccco4)c(-c4ccco4)nc3cc2Br)cc1`, the EC50 in test [1] was 1.9 µM. For the same compound, the IC50 in the test on HCT-116 turned out to be 38.1 µM; in the test on MCF7 it was 35.1 µM.

In the case of `Cn1c(=O)n(-c2ccc(C(C)(C)C#N)cc2)c2c3cc(-c4cnc5ccccc5c4)ccc3ncc21` [DACTOLISIB], the EC50 in test [3] came out at 0.079 µM.

`FC(F)(F)c1ccccc1-c1ccc2nc(-c3ccco3)c(-c3ccco3)nc2c1`: the figures for the EC50 in test [1] and in test [2] were 11.8 µM and 12.8 µM, respectively. Besides, the figures for the 50% inhibitory concentration (IC50) with HCT-116 and in the test on MCF7 were 45.3 µM and > 50 µM, respectively.

As for `Fc1cccc(-c2cc3nc(-c4ccco4)c(-c4ccco4)nc3cc2Br)c1F`, the EC50 in test [1] came out at 7.3 µM. The 50% inhibitory concentration (IC50) in the test on HCT-116 and in the test with MCF7 was > 50 µM each time.

In the case of `c1coc(-c2nc3ccc(-c4cc5ccccc5o4)cc3nc2-c2ccco2)c1`, the EC50 in test [1] is > 100 µM. Besides, the IC50 in the test on HCT-116 and with MCF7 was > 50 µM throughout.

As to `CC(C)(C)OC(=O)n1cccc1-c1cc2nc(-c3ccco3)c(-c3ccco3)nc2cc1Br`, the concentration giving a half-maximal response (EC50) in test [1] worked out at 18.6 µM. Moreover, the IC50 with HCT-116 and with MCF7 was > 50 µM each time.

Take `FC(F)(F)c1ccc(-c2cc3nc(-c4ccco4)c(-c4ccco4)nc3cc2Br)cc1`: the EC50 in test [1] is 0.516 µM. The IC50 was determined as 14.9 µM in the test with HCT-116 and 25.2 µM in the test on MCF7.

Regarding `Oc1ccccc1-c1cc2nc(-c3ccco3)c(-c3ccco3)nc2cc1Br`, the EC50 in test [1] is > 100 µM. The half-maximal inhibitory concentration (IC50) in the test with HCT-116 and in the test with MCF7 was > 50 µM each time.

Consider `Brc1ccccc1-c1cc2nc(-c3ccco3)c(-c3ccco3)nc2cc1Br`, for which the EC50 in test [1] was > 100 µM. The 50% inhibitory concentration (IC50) in the test with HCT-116 and in the test on MCF7 was > 50 µM throughout.

On to `Brc1cc2nc(-c3ccco3)c(-c3ccco3)nc2cc1-c1ccccc1`, for which the EC50 in test [1] came out at 20.5 µM. Moreover, the IC50 in the test with HCT-116 and with MCF7 was > 50 µM each time.

For the compound `Cc1ccc2nc(-c3ccco3)c(-c3ccco3)nc2c1`, the EC50 in test [1] is > 100 µM. In addition, the IC50 in the test with HCT-116 and in the test with MCF7 was > 50 µM throughout.
